Measurements as given in patent US20150105252A1, “SUBSTITUTED PYRAZOLES AS HERBICIDES” (E I DU PONT DE NEMOURS AND COMPANY, priority 2013, published 2015).

Columns and labels:
barnyardgrass [1] = experiment: Test A preemergence; type: in vivo, Echinochloa crus-galli; conditions: preemergence; for Barnyardgrass plant response rating (0 to 100 scale, 0 is no effect, 100 is complete control): visual injury approx. 10 days after treatment
Summary of the method: (§1)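 Visual injury rating, 0–100 (0 no effect, 100 complete control), vs untreated controls ~10 days after treatment in greenhouse. Pre: directed soil spray on seeded loam/sand. Post: 2–10 cm plants, 1–2 leaf stage. Formulation: non-phytotoxic solvent mix + surfactant.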

crabgrass, large [2] = experiment: Test A preemergence; type: in vivo, Digitaria sanguinalis; conditions: preemergence; for Crabgrass, Large plant response rating (0 to 100 scale): visual injury approx. 10 days after treatment
Summary of the method: as §1

foxtail, giant [3] = experiment: Test A preemergence; type: in vivo, Setaria faberii; conditions: preemergence; for Foxtail, Giant plant response rating (0 to 100 scale): visual injury approx. 10 days after treatment
Summary of the method: as §1

morningglory [4] = experiment: Test A preemergence; type: in vivo, Ipomoea spp.; conditions: preemergence; for Morningglory plant response rating (0 to 100 scale): visual injury approx. 10 days after treatment
Summary of the method: as §1

pigweed [5] = experiment: Test A preemergence; type: in vivo, Amaranthus retroflexus; conditions: preemergence; for Pigweed plant response rating (0 to 100 scale): visual injury approx. 10 days after treatment
Summary of the method: as §1

velvetleaf [6] = experiment: Test A preemergence; type: in vivo, Abutilon theophrasti; conditions: preemergence; for Velvetleaf plant response rating (0 to 100 scale): visual injury approx. 10 days after treatment
Summary of the method: as §1

wheat [7] = experiment: Test A preemergence; type: in vivo, Triticum aestivum; conditions: preemergence; for Wheat plant response rating (0 to 100 scale): visual injury approx. 10 days after treatment
Summary of the method: as §1

corn [8] = experiment: Test A preemergence; type: in vivo, Zea mays; conditions: preemergence; for Corn plant response rating (0 to 100 scale): visual injury approx. 10 days after treatment
Summary of the method: as §1

barnyardgrass [9] = experiment: Test A postemergence; type: in vivo, Echinochloa crus-galli
Summary of the method: as §1

crabgrass, large [10] = experiment: Test A postemergence; type: in vivo, Digitaria sanguinalis
Summary of the method: as §1

foxtail, giant [11] = experiment: Test A postemergence; type: in vivo, Setaria faberii
Summary of the method: as §1

morningglory [12] = experiment: Test A postemergence; type: in vivo, Ipomoea spp.
Summary of the method: as §1

pigweed [13] = experiment: Test A postemergence; type: in vivo, Amaranthus retroflexus
Summary of the method: as §1

velvetleaf [14] = experiment: Test A postemergence; type: in vivo, Abutilon theophrasti
Summary of the method: as §1

wheat [15] = experiment: Test A postemergence; type: in vivo, Triticum aestivum
Summary of the method: as §1

corn [16] = experiment: Test A postemergence; type: in vivo, Zea mays
Summary of the method: as §1

rice = experiment: Test B flood; type: in vivo, Oryza sativa; conditions: 250 g ai/ha, visual rating on 0 to 100 scale (0 no effect, 100 complete control), 13 to 15 days
Summary of the method: (§2)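 Plants were grown to the 2-leaf stage and pots flooded to 3 cm above soil. Compounds were applied directly into the paddy water, with depth kept for the test. After 13–15 days in greenhouse, response was rated visually against controls on a 0 (no effect) to 100 (complete control) scale.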

sedge, umbrella = experiment: Test B flood; type: in vivo, Cyperus difformis; conditions: 250 g ai/ha, visual rating on 0 to 100 scale (0 no effect, 100 complete control), 13 to 15 days
Summary of the method: as §2

ducksalad = experiment: Test B flood; type: in vivo, Heteranthera limosa; conditions: 250 g ai/ha, visual rating on 0 to 100 scale (0 no effect, 100 complete control), 13 to 15 days
Summary of the method: as §2

barnyardgrass [17] = experiment: Test B flood; type: in vivo, Echinochloa crus-galli; conditions: 250 g ai/ha, visual rating on 0 to 100 scale (0 no effect, 100 complete control), 13 to 15 days
Summary of the method: as §2

[18] = 500 g ai/ha, visual injury after approx. 10 days, 0 to 100 scale (0 no effect, 100 complete control)
[19] = Postemergence, 125 g ai/ha, 0 to 100 scale, 0 no effect, 100 complete control
[20] = Postemergence, 500 g ai/ha, 0 to 100 scale (0 no effect, 100 complete control)
[21] = 125 g ai/ha, visual injury, 0 to 100 scale, approx. 10 days
[22] = Postemergence, 500 g ai/ha, visual rating after approx. 10 days, 0 to 100 scale (0 no effect, 100 complete control)
[23] = postemergence, 125 g ai/ha, about 10 days, visual rating on 0 to 100 scale (0 no effect, 100 complete control)

## CCCNC(=O)c1cc(CC)n(Cc2cc(C(F)(F)C(F)(F)F)nn2C)n1 [Compound 229]
Barnyardgrass [1]; 125 g ai/ha
  Barnyardgrass plant response rating (0 to 100 scale, 0 is no effect, 100 is complete control): 50
Barnyardgrass [1]; [18]
  Barnyardgrass plant response rating: 100
crabgrass, large [2]; 125 g ai/ha
  Crabgrass, Large plant response rating (0 to 100 scale): 100
crabgrass, large [2]; [18]
  Crabgrass, Large plant response rating: 100
foxtail, giant [3]; 125 g ai/ha
  Foxtail, Giant plant response rating (0 to 100 scale): 90
foxtail, giant [3]; [18]
  Foxtail, Giant plant response rating: 100
Morningglory [4]; 125 g ai/ha
  Morningglory plant response rating (0 to 100 scale): 50
Pigweed [5]; 125 g ai/ha
  Pigweed plant response rating (0 to 100 scale): 100
Velvetleaf [6]; 125 g ai/ha
  Velvetleaf plant response rating (0 to 100 scale): 40
Wheat [7]; 125 g ai/ha
  Wheat plant response rating (0 to 100 scale): 20
Corn [8]; 125 g ai/ha
  Corn plant response rating (0 to 100 scale): 10
Corn [8]; [18]
  Corn plant response rating: 50
Barnyardgrass [9]; [19]
  Barnyardgrass plant response rating: 50
Barnyardgrass [9]; [20]
  Barnyardgrass plant response rating: 90
crabgrass, large [10]; [19]
  Crabgrass, Large plant response rating: 50
crabgrass, large [10]; [20]
  Crabgrass, Large plant response rating: 90
foxtail, giant [11]; [19]
  Foxtail, Giant plant response rating: 60
foxtail, giant [11]; [20]
  Foxtail, Giant plant response rating: 90
Morningglory [12]; [19]
  Morningglory plant response rating: 70
Morningglory [12]; [20]
  Morningglory plant response rating: 100
Pigweed [13]; [19]
  Pigweed plant response rating: 90
Pigweed [13]; [20]
  Pigweed plant response rating: 100
Velvetleaf [14]; [19]
  Velvetleaf plant response rating: 50
Velvetleaf [14]; [20]
  Velvetleaf plant response rating: 80
Wheat [15]; [19]
  Wheat plant response rating: 40
Wheat [15]; [20]
  Wheat plant response rating: 70
Corn [16]; [19]
  Corn plant response rating: 40
Corn [16]; [20]
  Corn plant response rating: 70
rice
  Plant response rating, Rice: 40
sedge, umbrella
  Plant response rating, Sedge, Umbrella: 95
ducksalad
  Plant response rating, Ducksalad: 100
Barnyardgrass [17]
  Plant response rating, Barnyardgrass: 60

## CCc1cc(C(=O)NCC(F)(F)C(F)(F)F)nn1Cc1ccnc(C(F)(F)F)c1 [Compound 102]
Barnyardgrass [1]; [21]
  Barnyardgrass plant response rating: 20
Barnyardgrass [1]; [18]
  Barnyardgrass plant response rating: 90
crabgrass, large [2]; [21]
  Crabgrass, Large plant response rating: 60
crabgrass, large [2]; [18]
  Crabgrass, Large plant response rating: 100
foxtail, giant [3]; [21]
  Foxtail, Giant plant response rating: 90
foxtail, giant [3]; [18]
  Foxtail, Giant plant response rating: 100
Morningglory [4]; [21]
  Morningglory plant response rating: 10
Morningglory [4]; [18]
  Morningglory plant response rating: 50
Pigweed [5]; [21]
  Pigweed plant response rating: 90
Pigweed [5]; [18]
  Pigweed plant response rating: 90
Velvetleaf [6]; [21]
  Velvetleaf plant response rating: 0
Velvetleaf [6]; [18]
  Velvetleaf plant response rating: 100
Wheat [7]; [21]
  Wheat plant response rating: 0
Wheat [7]; [18]
  Wheat plant response rating: 40
Corn [8]; [21]
  Corn plant response rating: 10
Corn [8]; [18]
  Corn plant response rating: 60
Barnyardgrass [9]; [22]
  Barnyardgrass plant response rating: 60
Barnyardgrass [9]; [23]
  Barnyardgrass plant response rating: 20
crabgrass, large [10]; [22]
  Crabgrass, Large plant response rating: 80
crabgrass, large [10]; [23]
  Crabgrass, Large plant response rating: 50
foxtail, giant [11]; [22]
  Foxtail, Giant plant response rating: 90
foxtail, giant [11]; [23]
  Foxtail, Giant plant response rating: 50
Morningglory [12]; [22]
  Morningglory plant response rating: 60
Morningglory [12]; [23]
  Morningglory plant response rating: 40
Pigweed [13]; [22]
  Pigweed plant response rating: 80
Pigweed [13]; [23]
  Pigweed plant response rating: 50
Velvetleaf [14]; [22]
  Velvetleaf plant response rating: 50
Velvetleaf [14]; [23]
  Velvetleaf plant response rating: 10
Wheat [15]; [22]
  Wheat plant response rating: 30
Wheat [15]; [23]
  Wheat plant response rating: 0
Corn [16]; [22]
  Corn plant response rating: 50
Corn [16]; [23]
  Corn plant response rating: 30
rice
  Plant response rating, Rice: 0
sedge, umbrella
  Plant response rating, Sedge, Umbrella: 50
ducksalad
  Plant response rating, Ducksalad: 50
Barnyardgrass [17]
  Plant response rating, Barnyardgrass: 0

## CCCNC(=O)c1cc(CC)n(Oc2cccc(OC(F)(F)F)c2)n1 [Compound 219]
Barnyardgrass [1]; 125 g ai/ha
  Barnyardgrass plant response rating (0 to 100 scale, 0 is no effect, 100 is complete control): 0
Barnyardgrass [1]; [18]
  Barnyardgrass plant response rating: 20
crabgrass, large [2]; 125 g ai/ha
  Crabgrass, Large plant response rating (0 to 100 scale): 40
crabgrass, large [2]; [18]
  Crabgrass, Large plant response rating: 90
foxtail, giant [3]; 125 g ai/ha
  Foxtail, Giant plant response rating (0 to 100 scale): 0
foxtail, giant [3]; [18]
  Foxtail, Giant plant response rating: 20
Morningglory [4]; 125 g ai/ha
  Morningglory plant response rating (0 to 100 scale): 0
Pigweed [5]; 125 g ai/ha
  Pigweed plant response rating (0 to 100 scale): 0
Velvetleaf [6]; 125 g ai/ha
  Velvetleaf plant response rating (0 to 100 scale): 0
Wheat [7]; 125 g ai/ha
  Wheat plant response rating (0 to 100 scale): 0
Corn [8]; 125 g ai/ha
  Corn plant response rating (0 to 100 scale): 0
Corn [8]; [18]
  Corn plant response rating: 0
Barnyardgrass [9]; [19]
  Barnyardgrass plant response rating: 10
Barnyardgrass [9]; [20]
  Barnyardgrass plant response rating: 40
crabgrass, large [10]; [19]
  Crabgrass, Large plant response rating: 20
crabgrass, large [10]; [20]
  Crabgrass, Large plant response rating: 70
foxtail, giant [11]; [19]
  Foxtail, Giant plant response rating: 20
foxtail, giant [11]; [20]
  Foxtail, Giant plant response rating: 60
Morningglory [12]; [19]
  Morningglory plant response rating: 10
Morningglory [12]; [20]
  Morningglory plant response rating: 70
Pigweed [13]; [19]
  Pigweed plant response rating: 20
Pigweed [13]; [20]
  Pigweed plant response rating: 60
Velvetleaf [14]; [19]
  Velvetleaf plant response rating: 0
Velvetleaf [14]; [20]
  Velvetleaf plant response rating: 90
Wheat [15]; [19]
  Wheat plant response rating: 0
Wheat [15]; [20]
  Wheat plant response rating: 10
Corn [16]; [19]
  Corn plant response rating: 10
Corn [16]; [20]
  Corn plant response rating: 20
rice
  Plant response rating, Rice: 0
sedge, umbrella
  Plant response rating, Sedge, Umbrella: 75
ducksalad
  Plant response rating, Ducksalad: 30
Barnyardgrass [17]
  Plant response rating, Barnyardgrass: 0
